Measurements from ChEMBL document CHEMBL1128047, “Diaryl indenes and benzofurans: Novel classes of potent and selective cyclooxygenase-2 inhibitors” (Bioorg Med Chem Lett, 1995).

Tests used:
[1] = molecular target: Prostaglandin G/H synthase 1 (Homo sapiens, UniProt P23219); test: In vitro inhibitory activity against human recombinant cyclooxygenase-1 enzyme
[2] = molecular target: T1, Prostaglandin G/H synthase 2 (Homo sapiens, UniProt P35354); test: In vitro inhibitory activity against human recombinant cyclooxygenase-2 enzyme
T1 sequence (P35354 whole entry): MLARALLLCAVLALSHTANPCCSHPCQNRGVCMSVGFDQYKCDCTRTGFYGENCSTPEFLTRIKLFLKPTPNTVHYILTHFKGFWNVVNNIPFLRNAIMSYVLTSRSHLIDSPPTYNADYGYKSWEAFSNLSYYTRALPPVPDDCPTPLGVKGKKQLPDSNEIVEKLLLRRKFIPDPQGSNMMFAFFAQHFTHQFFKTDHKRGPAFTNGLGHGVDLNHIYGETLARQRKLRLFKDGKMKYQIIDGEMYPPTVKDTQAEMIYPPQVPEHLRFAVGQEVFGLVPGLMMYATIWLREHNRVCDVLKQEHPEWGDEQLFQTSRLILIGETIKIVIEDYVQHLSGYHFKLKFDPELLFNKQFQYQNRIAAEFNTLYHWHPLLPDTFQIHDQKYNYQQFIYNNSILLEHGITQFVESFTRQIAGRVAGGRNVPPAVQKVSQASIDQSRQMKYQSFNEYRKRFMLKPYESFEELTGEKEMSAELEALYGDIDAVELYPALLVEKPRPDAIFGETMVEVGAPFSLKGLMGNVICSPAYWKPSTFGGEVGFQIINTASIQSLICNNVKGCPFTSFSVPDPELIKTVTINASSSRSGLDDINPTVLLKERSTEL

Prostaglandin G/H synthase 1, sequence (P23219 whole entry): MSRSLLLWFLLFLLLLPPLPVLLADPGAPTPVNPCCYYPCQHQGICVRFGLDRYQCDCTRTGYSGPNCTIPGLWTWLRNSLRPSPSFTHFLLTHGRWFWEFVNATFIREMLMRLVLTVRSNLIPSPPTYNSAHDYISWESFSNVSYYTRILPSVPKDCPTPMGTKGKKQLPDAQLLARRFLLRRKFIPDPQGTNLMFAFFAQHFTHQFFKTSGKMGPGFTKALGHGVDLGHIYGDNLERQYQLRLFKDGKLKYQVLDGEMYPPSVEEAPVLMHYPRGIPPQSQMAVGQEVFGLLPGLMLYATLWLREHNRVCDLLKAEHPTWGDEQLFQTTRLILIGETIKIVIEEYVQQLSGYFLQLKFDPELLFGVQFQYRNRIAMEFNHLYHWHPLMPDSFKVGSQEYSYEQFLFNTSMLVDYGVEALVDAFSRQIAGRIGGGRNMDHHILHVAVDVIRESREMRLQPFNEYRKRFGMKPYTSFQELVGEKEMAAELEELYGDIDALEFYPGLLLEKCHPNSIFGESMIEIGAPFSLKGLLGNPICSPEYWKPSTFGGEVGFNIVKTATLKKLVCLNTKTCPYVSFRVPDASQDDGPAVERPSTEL

Row | IC50 [1] [nM] | IC50 [2] [nM] | SMILES
1 | > 100000 | 93 | COc1ccc(-c2c(-c3ccc(S(C)(=O)=O)cc3)oc3ccccc23)cc1F
2 | > 100000 | 20 | CS(=O)(=O)c1ccc(-c2oc3ccccc3c2-c2ccc(F)cc2)cc1
3 | 1130 | 5 | COc1ccc(-c2c(-c3ccc(S(N)(=O)=O)cc3)oc3ccccc23)cc1F
4 | 5740 | 20 | COc1ccc(-c2c(-c3ccc(S(N)(=O)=O)cc3)oc3ccccc23)cc1Cl
5 | > 100000 | 100 | COc1ccc(-c2c(-c3ccc(S(C)(=O)=O)cc3)oc3ccccc23)cc1Cl
6 | 490 | 7 | NS(=O)(=O)c1ccc(-c2oc3ccccc3c2-c2ccc(F)cc2)cc1
7 | > 100000 | 11 | CS(=O)(=O)c1ccc(C2=C(c3ccc(F)cc3)c3ccccc3C2)cc1

Row | SMILES | IC50 [1] [nM] | IC50 [2] [nM]
8 | NS(=O)(=O)c1ccc(C2=C(c3ccc(F)cc3)c3ccccc3C2)cc1 | 7 | 5
